Measurements taken from US5707821A, “Identification of phospholipase A2 inhibitors in Aβ peptide-mediated neurodegenerative disease” (priority 1995, dated 1998).

Experiments:
Type in all cases: cell-based
human cortical neurons = assay: Aβ neurotoxicity / survival of human cortical neurons (alamarBlue), compound added at time of Aβ1-40
Description: Cultures of human cortical or hippocampal neurons were prepared using a modification of the procedure described in P. Seubert et al. (1992), Nature 359:325-327. Cortical or hippocampal tissue was dissociated by incubation in a trypsin/EDTA solution (0.05% trypsin +0.53 mM EDTA in HBSS; Gibco) for 20 minutes at 37° C. The trypsin was then inactivated by resuspending the cells in serum-containing medium (MEM/FBS): Modified Eagle's Medium (MEM) containing 1% glucose, 1 mM sodium pyruvate, 1 mM glutamine, and supplemented with 10% fetal bovine serum (Gibco). Cells were then pelleted by centrifugation and resuspended in a chemically-defined medium (MEM/B27): MEM containing B27 supplement (Gibco) in place of FBS. Polyethyleneimine (PEI)-coated 6.4-mm (96-well) dishes were rinsed once with MEM/FBS, and then seeded at 0.75-1.25×10^5 cells per well in 0.1 ml MEM/B27. Cultures were maintained in a H2 O-saturated incubator with an atmosphere of 95% air/5% CO2 at 37° C. The culture medium was exchanged twice weekly.
Amyloid-β (Aβ) stock solutions were prepared as 1 mM stocks in sterile ddH2 O immediately prior to addition to cultures. Rat cortical neurons were exposed to Aβ by removing the culture medium and replacing it with DMEM/N2 or DMEM/B27 containing Aβ1-40. Human cortical neurons were exposed to Aβ by removing the culture medium and replacing it with MEM, MEM/N2, or MEM/B27 containing Aβ1-40. Cultures were maintained for 2-4 days before neuronal survival was quantified using alamarBlue™.
The alamarBlue™ assay incorporated a proprietary fluorometric/colorimetric metabolic indicator (Alamar Biosciences, Inc.). Viable cells convert alamarBlue™ from an oxidized (non-fluorescent, blue) form to a reduced (fluorescent, red) form. Assays were performed by replacing the culture media with a 10% alamarBlue™ solution in DMEM (rat cortical cultures) or MEM (human cortical cultures). Reduction of alamarBlue™ was determined spectrofluorometrically using a Millipore Cytofluor 2350 Scanner (excitation, […]; emission, 590 nm) and CytoCalc™ software (Millipore Corporation).
The effect of the two benzenesulfonamide inhibitors of PLA2 in Example 2 were examined to determine the dose-dependence of their effect on neuronal survival in human cortical neuron cultures exposed to 0 μM, 25μM, or 50 μM of Aβ1-40 and varying doses of the benzenesulfonamide.
Human cortical neurons were treated with 50 μM Aβ1-40 and various inhibitors of PLA2 or PLC. Compounds were added at the time of Aβ1-40 treatment at concentrations 390 nM to 100 μM. Compounds were also added to neuronal cultures in the absence of Aβ1-40. Neuronal survival was determined after 3 days of treatment by alamarBlue®. IC50 is the dose of compound that inhibited Aβ-mediated neurotoxicity by 50%. […] Data represents the mean ± SD (n=3). ND, not detected at the concentration range used.

[1] = system: IL-1β release by cultured human cortical microglia; assay: IL-1β release (ELISA) from Aβ1-40-stimulated human microglia
Description: (§1) Cultures of human cortical or hippocampal astrocytes and microglia were prepared using a modification of the procedure described for cortical neurons. Cortical tissue from fetuses of 16 to 20 weeks of gestation was washed 3 times in Ca^2+ /Mg^2+ free Hanks balanced salt solution (CMF HBSS) and then dissociated by repeated pipetting. The solution was brought to a final volume of 80 ml CMF HBSS for approximately 10 ml of tissue. DNase (Sigma) was added to a final concentration of 0.05 mg/ml. 20 ml of the solution was passed through one 100 μm nylon cell strained (Falcon). The cells were then centrifuged for 5 minutes at 200×G in an IEC Clinical Centrifuge and resuspended in a trypsin/EDTA solution (0.05% trypsin+0.53 mM EDTA in HBSS; Gibco) and incubated for 20 minutes at 37°C. (10 ml of trypsin was added per 2-3 ml of tissue). The trypsin was then inactivated by adding (MEM/FBS): Modified Eagle's Medium (MEM) containing 1% glucose, 1 mM sodium pyruvate, 1 mM glutamine, and supplemented with 10% fetal bovine serum (JRH). After adding a final concentration of 0.05 mg/ml DNase the cells were resuspended and then pelleted by centrifugation and resuspended in MEM/FBS. 1.6×10^8 cells were seeded in a T-150 tissue culture flask coated with polyethyleneimine (PEI). (10% PEI (Sigma) was diluted 1:10 in H2 O, filtered through a […] unit and then diluted into 150 mM sodium borate pH 8.5 at 1:100. The flasks were coated overnight at room temperature, washed two times in PBS and coated with 20 ml/flask of MEM/FBS at 37° C. for at least one hour prior to plating cells.) Cultures were maintained in a H2 O-saturated incubator with an atmosphere of 95% air/5% CO2 at 37° C. The culture medium was changed one and four days after plating and the cultures were then left undisturbed for at least one week. After approximately two weeks in vitro, the flasks were gently shaken and floating microglia were collected and centrifuged for 5 minutes at 200×G in an IEC Clinical Centrifuge. The microglia were reseeded in 96 well tissue culture plates at a density of 5,000-40,000 cells/well in 125 μl in MEM/FBS. Astrocyte cultures were prepared by multiple passaging of the established mixed brain cell cultures. Each T-150 was incubated for 3-4 minutes at 37°C. with a trypsin/EDTA solution (see above). The trypsin was then inactivated by adding MEM/FBS. The cells were triturated and then pelleted by centrifugation and resuspended in MEM/FBS. The cells from one T-150 were seeded at a 1:30 to 1:5 dilution in T-150's not coated. Just prior to confluency the cells were repassaged by trypsinization as described above. This process was repeated until the cultures were >98% pure astrocytes.
Cultured microglial cells were treated with 50 μM of Aβ1-40 or vehicle only (Control). The levels of IL-1β, IL-6, and TNF-α released into the culture medium were determined by ELISA assay (R&D Systems) according to manufacturer's instructions.
The effect of two benzenesulfonamide inhibitors of PLA2 (European Patent Application 468 054) were examined on the activation of microglial cells by Aβ1-40 as in Example 1.
(§2) The effects of the benzenesulfonamide PLA2 inhibitor AN20606 and the selective cytosolic PLA2 inhibitor arachidonyl trifluoromethyl ketone (AN20579) were examined in cultured human cortical microglia for their selectivity for inhibiting microglia activation mediated by amyloid-βpeptide and lipopolysaccharides (LPS). LPS are a major constituent of the cell wall of gama-negative bacteria and are extensively used for generating inflammatory responses in cultured cells and in vivo.

[2] = system: TNFα release by cultured human cortical microglia; assay: TNF release from LPS-stimulated human cortical microglia
Description: as §1, §2

CN(C(=O)/C=C/c1ccc(S(C)(=O)=O)cc1)c1ccc(S(=O)(=O)NC2CCCCCC2)cc1 [AN20606, N-cycloheptyl-4-[N-methyl-N-[(E)-3-(4-methylsulfonylphenyl)-2-propenoyl]amino]benzenesulfonamide]
neuronal survival in the presence of pathogenic Aβ peptide (in words) (human cortical neurons; 0, 25 or 50 μM Aβ1-40, varying doses, FIG. 3, FIG. 4): dose-dependent increase in neuronal survival
Max Inh (human cortical neurons; 50 μM Aβ1-40, compound 390 nM to 100 μM added at time of Aβ, 3 days, n=3): 80%
IC50 (human cortical neurons; Homo sapiens, Cortical neurone, 72 h, 50 μM Aβ1-40, compound 390 nM to 100 μM added at time of Aβ, 3 days, n=3, ND = not detected at the concentration range used, read-out: IC50 (dose that inhibited Aβ-mediated neurotoxicity by 50%)): 5 µM
amount of IL-1β released into the medium (in words) ([1]; 50 μM Aβ1-40, 1 day, compound 0, 5, 10, 20 μM, FIG. 2): marked and dose-dependent decrease
IL-1 Released ([1]; 50 μM Aβ1-40, inhibitor 20 μM where present): 16.5 ± 6 pg/mL
Aβ1-40-mediated IL-1β release, selectivity versus LPS (in words) ([1]; Aβ1-40 versus LPS stimulation): selectively inhibited
activity at 20 µM ([1]; Homo sapiens, Microglia, 50 μM Aβ1-40 + 20 μM inhibitor, read-out: IL-1 Released, percent in parentheses (relative to Aβ1-40 alone)): 6%
TNF Released ([2]; 10 ng/ml LPS, inhibitor 20 μM where present): 632 ± 211 pg/mL
activity at 20 µM ([2]; Homo sapiens, Microglia, 10 ng/ml LPS + 20 μM inhibitor, read-out: TNF Released, percent in parentheses (relative to LPS alone)): 130%
LPS-mediated cytokine release, TNF (in words) ([2]; LPS stimulation): actually enhanced
